In ChEMBL document CHEMBL4387741, “Optimization of novel reversible Bruton's tyrosine kinase inhibitors identified using Tethering-fragment-based screens” (Bioorg Med Chem, 2019):

What was measured:
[1] = biological target: Serine/threonine-protein kinase 33 (Homo sapiens) (UniProt Q9BYT3); experiment: Inhibition of wild-type human full length STK33 (M1 to L514 residues) expressed in bacterial expression system at 1 uM by Kinomescan method relative to control
[2] = biological target: Calcium/calmodulin-dependent protein kinase type 1 (Homo sapiens) (UniProt Q14012); experiment: Inhibition of wild-type human full length CAMK1 (M1 to L370 residues) expressed in bacterial expression system at 1 uM by Kinomescan method relative to control
[3] = biological target: Ribosomal protein S6 kinase alpha-5 (Homo sapiens) (UniProt O75582); experiment: Inhibition of wild-type human partial length C-terminal RPS6KA5 kinase domain 2 (V390 to T718 residues) expressed in bacterial expression system at 1 uM by Kinomescan method relative to control
Chain of Ribosomal protein S6 kinase alpha-5 (Homo sapiens) (O75582 whole entry, looked up, the tested form may be a part): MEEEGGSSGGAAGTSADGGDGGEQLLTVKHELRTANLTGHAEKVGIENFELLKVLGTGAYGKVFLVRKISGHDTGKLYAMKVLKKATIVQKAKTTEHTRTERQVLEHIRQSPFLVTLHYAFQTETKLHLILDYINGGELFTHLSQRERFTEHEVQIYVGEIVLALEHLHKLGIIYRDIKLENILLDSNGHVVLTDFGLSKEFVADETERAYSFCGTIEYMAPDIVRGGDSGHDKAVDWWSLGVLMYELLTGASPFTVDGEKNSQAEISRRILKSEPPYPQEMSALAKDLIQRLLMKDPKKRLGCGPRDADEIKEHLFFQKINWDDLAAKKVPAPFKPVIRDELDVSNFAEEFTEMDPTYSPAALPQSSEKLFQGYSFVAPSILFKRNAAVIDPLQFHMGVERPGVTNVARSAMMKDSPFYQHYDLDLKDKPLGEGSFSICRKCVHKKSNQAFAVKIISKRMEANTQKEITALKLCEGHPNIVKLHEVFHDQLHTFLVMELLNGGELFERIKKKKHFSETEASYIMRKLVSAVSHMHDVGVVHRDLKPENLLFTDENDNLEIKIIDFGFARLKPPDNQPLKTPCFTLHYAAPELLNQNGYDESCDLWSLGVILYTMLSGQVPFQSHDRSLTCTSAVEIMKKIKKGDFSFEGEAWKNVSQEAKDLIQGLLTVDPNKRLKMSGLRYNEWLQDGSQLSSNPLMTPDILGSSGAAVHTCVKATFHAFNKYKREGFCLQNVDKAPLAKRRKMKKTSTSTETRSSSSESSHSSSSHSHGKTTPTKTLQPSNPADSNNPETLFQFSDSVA

[4] = biological target: Tyrosine-protein kinase receptor UFO (Homo sapiens) (UniProt P30530); experiment: Inhibition of wild-type human partial length AXL (R497 to Y821 residues) expressed in bacterial expression system at 1 uM by Kinomescan method relative to control
[5] = biological target: Tyrosine-protein kinase ABL2 (Homo sapiens) (UniProt P42684); experiment: Inhibition of wild-type human ABL2 (A248 to G542 residues) expressed in bacterial expression system at 1 uM by Kinomescan method relative to control
[6] = biological target: Serine/threonine-protein kinase OSR1 (Homo sapiens) (UniProt O95747); experiment: Inhibition of wild-type human full length OSR1 (M1 to S527 residues) expressed in mammalian expression system at 1 uM by Kinomescan method relative to control
[7] = tested on: Mast/stem cell growth factor receptor Kit (Homo sapiens), P10721 [V559D]; experiment: Inhibition of human partial length KIT V559D mutant (Y545 to D952 residues) expressed in bacterial expression system at 1 uM by Kinomescan method relative to control
[8] = biological target: Serine/threonine-protein kinase N2 (Homo sapiens) (UniProt Q16513); experiment: Inhibition of wild-type human partial length PKN2 (E634 to C984 residues) expressed in bacterial expression system at 1 uM by Kinomescan method relative to control
[9] = biological target: Serine/threonine-protein kinase 35 (Homo sapiens) (UniProt Q8TDR2); experiment: Inhibition of wild-type human partial length STK35 (G182 to A534 residues) expressed in bacterial expression system at 1 uM by Kinomescan method relative to control
[10] = biological target: Activin receptor type-2A (Homo sapiens) (UniProt P27037); experiment: Inhibition of wild-type human ACVR2A (V171 to T499 residues) expressed in bacterial expression system at 1 uM by Kinomescan method relative to control
[11] = biological target: Myosin light chain kinase (Homo sapiens) (UniProt Q32MK0); experiment: Inhibition of wild-type human partial length MLCK (D488 to K800 residues) expressed in bacterial expression system at 1 uM by Kinomescan method relative to control
[12] = biological target: Serine/threonine-protein kinase SIK1 (Homo sapiens) (UniProt P57059); experiment: Inhibition of wild-type human partial length SIK (M1 to Y304 residues) expressed in bacterial expression system at 1 uM by Kinomescan method relative to control
[13] = biological target: Myosin light chain kinase family member 4 (Homo sapiens) (UniProt Q86YV6); experiment: Inhibition of wild-type human partial length MYLK4 (V79 to S380 residues) expressed in bacterial expression system at 1 uM by Kinomescan method relative to control
[14] = tested on: Receptor-type tyrosine-protein kinase FLT3 (Homo sapiens), P36888 [D835V]; experiment: Inhibition of human partial length FLT3 D835V mutant (V592 to Y969 residues) expressed in bacterial expression system at 1 uM by Kinomescan method relative to control
[15] = biological target: Ribosomal protein S6 kinase alpha-1 (Homo sapiens) (UniProt Q15418); experiment: Inhibition of wild-type human partial length C-terminal RSK1 kinase domain 2 (P360 to L681 residues) expressed in bacterial expression system at 1 uM by Kinomescan method relative to control
Chain of Ribosomal protein S6 kinase alpha-1 (Homo sapiens) (Q15418 whole entry, the tested form may be a part): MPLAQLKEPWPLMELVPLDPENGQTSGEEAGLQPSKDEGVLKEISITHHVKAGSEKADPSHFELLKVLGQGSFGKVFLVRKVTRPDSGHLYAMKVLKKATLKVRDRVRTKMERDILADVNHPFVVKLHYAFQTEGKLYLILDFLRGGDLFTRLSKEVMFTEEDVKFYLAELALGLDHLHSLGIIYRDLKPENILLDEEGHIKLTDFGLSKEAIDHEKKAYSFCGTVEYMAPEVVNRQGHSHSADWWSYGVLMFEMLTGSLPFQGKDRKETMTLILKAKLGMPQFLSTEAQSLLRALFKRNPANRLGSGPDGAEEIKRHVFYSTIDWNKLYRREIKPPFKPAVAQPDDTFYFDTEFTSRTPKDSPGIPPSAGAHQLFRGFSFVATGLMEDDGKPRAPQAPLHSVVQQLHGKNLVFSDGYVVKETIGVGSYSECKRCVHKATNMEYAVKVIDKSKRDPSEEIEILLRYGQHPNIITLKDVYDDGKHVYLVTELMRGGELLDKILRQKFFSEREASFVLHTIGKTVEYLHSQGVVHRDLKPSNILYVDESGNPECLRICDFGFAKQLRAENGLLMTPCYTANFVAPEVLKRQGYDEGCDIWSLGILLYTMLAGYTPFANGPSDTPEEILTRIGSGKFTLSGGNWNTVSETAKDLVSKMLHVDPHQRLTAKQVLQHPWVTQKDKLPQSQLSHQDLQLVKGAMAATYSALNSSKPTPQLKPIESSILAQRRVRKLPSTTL

[16] = biological target: Tyrosine-protein kinase JAK2 (Homo sapiens) (UniProt O60674); experiment: Inhibition of wild-type human partial length JAK2 JH1 catalytic domain (A829 to G1132 residues) expressed in mammalian expression system at 10 uM by Kinomescan method relative to control
[17] = biological target: Mast/stem cell growth factor receptor Kit (Homo sapiens) (UniProt P10721); experiment: Inhibition of wild-type human partial length autoinhibited KIT (Y545 to D952 residues) expressed in mammalian expression system at 10 uM by Kinomescan method relative to control
[18] = biological target: Cyclin-dependent kinase-like 5 (Homo sapiens) (UniProt O76039); experiment: Inhibition of wild-type human partial length CDKL5 (M1 to S337 residues) expressed in mammalian expression system at 10 uM by Kinomescan method relative to control
Chain of Cyclin-dependent kinase-like 5 (Homo sapiens) (O76039 whole entry, the tested form may be a part): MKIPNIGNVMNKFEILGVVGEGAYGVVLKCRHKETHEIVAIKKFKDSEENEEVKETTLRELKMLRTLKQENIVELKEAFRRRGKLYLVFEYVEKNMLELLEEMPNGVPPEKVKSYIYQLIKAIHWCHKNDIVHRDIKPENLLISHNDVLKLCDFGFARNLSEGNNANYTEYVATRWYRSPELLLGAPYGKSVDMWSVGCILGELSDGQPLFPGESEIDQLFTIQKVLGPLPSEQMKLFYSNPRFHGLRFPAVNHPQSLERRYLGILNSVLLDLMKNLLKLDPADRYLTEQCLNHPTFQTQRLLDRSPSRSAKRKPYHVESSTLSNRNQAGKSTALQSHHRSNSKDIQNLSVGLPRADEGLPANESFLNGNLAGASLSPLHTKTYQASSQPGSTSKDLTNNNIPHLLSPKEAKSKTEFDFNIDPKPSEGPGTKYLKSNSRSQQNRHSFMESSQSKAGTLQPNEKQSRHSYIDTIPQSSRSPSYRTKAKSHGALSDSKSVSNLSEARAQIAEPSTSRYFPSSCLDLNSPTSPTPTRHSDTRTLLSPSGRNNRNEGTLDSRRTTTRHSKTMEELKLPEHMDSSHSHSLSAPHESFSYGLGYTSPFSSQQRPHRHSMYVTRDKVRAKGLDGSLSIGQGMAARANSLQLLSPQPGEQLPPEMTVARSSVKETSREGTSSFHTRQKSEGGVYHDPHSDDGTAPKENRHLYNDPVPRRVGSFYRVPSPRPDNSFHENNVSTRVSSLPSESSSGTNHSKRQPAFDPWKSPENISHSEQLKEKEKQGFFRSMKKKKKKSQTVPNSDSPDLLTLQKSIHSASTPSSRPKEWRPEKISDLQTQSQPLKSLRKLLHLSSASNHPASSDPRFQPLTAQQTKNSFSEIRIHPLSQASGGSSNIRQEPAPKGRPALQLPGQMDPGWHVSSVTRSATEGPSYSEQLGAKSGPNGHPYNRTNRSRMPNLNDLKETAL

[19] = biological target: Ribosomal protein S6 kinase alpha-1 (Homo sapiens) (UniProt Q15418); experiment: Inhibition of wild-type human partial length N-terminal RSK1 Kinase domain 1 (M1 to E388 residues) expressed in bacterial expression system at 10 uM by Kinomescan method relative to control
[20] = tested on: Epidermal growth factor receptor (Homo sapiens), P00533 [L858R]; experiment: Inhibition of human partial length EGFR L858R mutant (R669 to V1011 residues) expressed in bacterial expression system at 10 uM by Kinomescan method relative to control
[21] = biological target: Dual specificity tyrosine-phosphorylation-regulated kinase 1B (Homo sapiens) (UniProt Q9Y463); experiment: Inhibition of wild-type human full length DYRK1B (M1 to S629 residues) expressed in bacterial expression system at 10 uM by Kinomescan method relative to control
[22] = biological target: Mitogen-activated protein kinase kinase kinase kinase 4 (Homo sapiens) (UniProt O95819); experiment: Inhibition of wild-type human partial length MAP4K4 (M1 to R310 residues) expressed in bacterial expression system at 10 uM by Kinomescan method relative to control
[23] = biological target: Calcium/calmodulin-dependent protein kinase type II subunit gamma (Homo sapiens) (UniProt Q13555); experiment: Inhibition of wild-type human partial length CAMK2G (R9 to A303 residues) expressed in bacterial expression system at 10 uM by Kinomescan method relative to control
[24] = biological target: Leukocyte tyrosine kinase receptor (Homo sapiens) (UniProt P29376); experiment: Inhibition of wild-type human partial length LTK (P422 to S744 residues) expressed in bacterial expression system at 10 uM by Kinomescan method relative to control
Chain of Leukocyte tyrosine kinase receptor (Homo sapiens) (P29376 whole entry, the tested form may be a part): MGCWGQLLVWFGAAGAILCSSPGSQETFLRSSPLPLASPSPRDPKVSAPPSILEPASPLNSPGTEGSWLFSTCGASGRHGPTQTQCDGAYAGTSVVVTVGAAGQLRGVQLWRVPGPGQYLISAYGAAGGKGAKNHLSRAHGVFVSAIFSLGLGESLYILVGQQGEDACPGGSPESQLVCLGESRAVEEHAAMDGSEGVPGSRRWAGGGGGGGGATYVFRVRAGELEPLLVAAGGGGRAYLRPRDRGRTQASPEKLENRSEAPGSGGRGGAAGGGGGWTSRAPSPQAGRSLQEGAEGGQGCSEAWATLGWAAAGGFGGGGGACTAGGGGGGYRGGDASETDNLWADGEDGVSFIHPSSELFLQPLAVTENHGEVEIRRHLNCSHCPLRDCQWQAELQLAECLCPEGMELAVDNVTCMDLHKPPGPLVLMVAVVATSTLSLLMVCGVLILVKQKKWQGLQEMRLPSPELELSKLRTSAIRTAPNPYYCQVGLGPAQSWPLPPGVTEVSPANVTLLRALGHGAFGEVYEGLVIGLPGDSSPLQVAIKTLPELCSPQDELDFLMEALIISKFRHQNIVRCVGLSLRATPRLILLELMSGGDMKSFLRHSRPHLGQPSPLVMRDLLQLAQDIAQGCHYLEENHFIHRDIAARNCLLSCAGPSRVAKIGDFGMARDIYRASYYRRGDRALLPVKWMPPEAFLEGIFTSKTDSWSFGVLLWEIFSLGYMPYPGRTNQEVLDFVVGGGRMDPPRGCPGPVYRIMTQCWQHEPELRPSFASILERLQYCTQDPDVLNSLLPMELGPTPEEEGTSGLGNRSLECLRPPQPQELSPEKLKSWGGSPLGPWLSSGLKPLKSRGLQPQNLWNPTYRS

[25] = biological target: Rhodopsin kinase GRK7 (Homo sapiens) (UniProt Q8WTQ7); experiment: Inhibition of wild-type human full length GRK7 (M1 to L553 residues) expressed in mammalian expression system at 10 uM by Kinomescan method relative to control
[26] = biological target: Tyrosine-protein kinase JAK1 (Homo sapiens) (UniProt P23458); experiment: Inhibition of wild-type human partial length JAK1 JH2 pseudokinase domain (R537 to D855 residues) expressed in mammalian expression system at 10 uM by Kinomescan method relative to control
Chain of Tyrosine-protein kinase JAK1 (Homo sapiens) (P23458 whole entry, the tested form may be a part): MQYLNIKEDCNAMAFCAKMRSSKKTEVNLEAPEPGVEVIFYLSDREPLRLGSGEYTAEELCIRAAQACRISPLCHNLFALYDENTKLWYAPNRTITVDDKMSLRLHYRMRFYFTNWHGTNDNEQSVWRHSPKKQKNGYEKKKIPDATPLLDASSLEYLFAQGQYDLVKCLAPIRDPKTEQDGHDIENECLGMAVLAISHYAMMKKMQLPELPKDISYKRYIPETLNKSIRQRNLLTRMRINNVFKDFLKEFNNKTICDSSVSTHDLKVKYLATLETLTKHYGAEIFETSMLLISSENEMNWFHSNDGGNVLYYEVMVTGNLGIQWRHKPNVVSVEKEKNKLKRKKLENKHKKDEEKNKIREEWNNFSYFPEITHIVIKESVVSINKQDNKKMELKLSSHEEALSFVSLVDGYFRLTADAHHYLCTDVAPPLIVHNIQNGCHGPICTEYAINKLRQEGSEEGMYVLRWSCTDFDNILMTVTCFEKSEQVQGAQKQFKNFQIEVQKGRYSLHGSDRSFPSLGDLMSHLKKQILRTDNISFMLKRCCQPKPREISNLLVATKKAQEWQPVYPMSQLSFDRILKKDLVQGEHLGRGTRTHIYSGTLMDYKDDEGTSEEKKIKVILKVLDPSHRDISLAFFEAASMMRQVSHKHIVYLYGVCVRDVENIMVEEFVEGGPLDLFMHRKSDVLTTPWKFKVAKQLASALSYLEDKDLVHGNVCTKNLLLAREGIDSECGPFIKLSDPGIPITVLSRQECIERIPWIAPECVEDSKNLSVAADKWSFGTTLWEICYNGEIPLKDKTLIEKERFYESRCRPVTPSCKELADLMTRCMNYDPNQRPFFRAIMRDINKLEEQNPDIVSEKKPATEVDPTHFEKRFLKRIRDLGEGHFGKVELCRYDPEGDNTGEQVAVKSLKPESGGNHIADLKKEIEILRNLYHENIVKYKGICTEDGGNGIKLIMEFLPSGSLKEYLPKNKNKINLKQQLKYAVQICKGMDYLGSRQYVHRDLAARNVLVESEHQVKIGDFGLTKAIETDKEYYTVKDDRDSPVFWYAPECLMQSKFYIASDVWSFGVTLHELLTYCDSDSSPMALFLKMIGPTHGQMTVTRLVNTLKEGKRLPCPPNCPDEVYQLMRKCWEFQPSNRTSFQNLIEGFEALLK

[27] = biological target: AP2-associated protein kinase 1 (Homo sapiens) (UniProt Q2M2I8); experiment: Inhibition of human wild-type AAK1 (G25 to L333 residues) expressed in bacterial expression system at 10 uM by Kinomescan method relative to control

Chain of Serine/threonine-protein kinase 33 (Homo sapiens) (Q9BYT3 whole entry, looked up, the tested form may be a part): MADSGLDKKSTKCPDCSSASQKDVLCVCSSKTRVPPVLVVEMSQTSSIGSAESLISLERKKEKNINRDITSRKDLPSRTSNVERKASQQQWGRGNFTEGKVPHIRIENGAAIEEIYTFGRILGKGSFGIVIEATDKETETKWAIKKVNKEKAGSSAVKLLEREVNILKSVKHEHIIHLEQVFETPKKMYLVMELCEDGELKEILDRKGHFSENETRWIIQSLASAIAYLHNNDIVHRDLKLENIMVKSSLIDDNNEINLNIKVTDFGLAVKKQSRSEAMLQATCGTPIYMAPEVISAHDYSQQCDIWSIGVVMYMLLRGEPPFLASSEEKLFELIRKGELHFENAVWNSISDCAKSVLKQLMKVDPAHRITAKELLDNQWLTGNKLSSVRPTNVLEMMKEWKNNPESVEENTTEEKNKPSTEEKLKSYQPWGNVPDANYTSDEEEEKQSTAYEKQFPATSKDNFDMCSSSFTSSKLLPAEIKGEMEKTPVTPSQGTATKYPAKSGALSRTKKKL

For `O=C(Nc1cccc([C@@H]2CN(c3ncnc4[nH]ccc34)CCN2CCO)c1)Nc1c(F)cccc1N1CCCC1`, the inhibition [1] was 55%, the inhibition [2] was 95% and the inhibition [3] was 96%. For the same molecule, the inhibition [4] was 23%, the inhibition [5] was 97% and the inhibition [6] was 100%. It also gave an inhibition [7] of 40%, an inhibition [8] of 75% and an inhibition [9] of 100%. The inhibition [10] was 100%, the inhibition [11] was 100% and the inhibition [12] was 55%. It also gave an inhibition [13] of 100%, an inhibition [14] of 11% and an inhibition [15] of 88%.

In the case of `O=C(Nc1cccc([C@H]2CCCN(c3ncnc4[nH]ccc34)C2)c1)Nc1ccccc1N1CCCC1`, the inhibition [16] was 0%, the inhibition [17] was 71% and the inhibition [18] was 96%. The inhibition [19] was 42%, the inhibition [20] was 76% and the inhibition [21] was 94%. For the same molecule, the inhibition [22] was 100%, the inhibition [23] was 94% and the inhibition [24] was 100%. It also gave an inhibition [25] of 80%, an inhibition [26] of 61% and an inhibition [27] of 26%.
